Experimental data from PMC6917776, “Discovery of a chemical probe for PRDM9” (Nature Communications, 2019).

Tests used:
[1] = tested on: CAL851; test: CelltiterGlo viability cell assay; assay type: cell-based
Protocol: (§1) Supplementary Figure 13. […] Viability of
(§2) (a) Multiple Myeloma lines and (b) Breast Cancer cell lines following 3 or 6 days treatment with […]
(§3) manufacturer’s instructions as described in the Supplementary methods. Data are normalized to DMSO control. N=3 biological replicates, +/- SEM. Source data are provided as a Source Data […]
(§4) CelltiterGlo viability cell assay
(§5) Cells were seeded in 96 well plates at per-well densities of 10000 (MDA-MB436, ATCC-HTB130), 15000 (8226, kind gift from Rodger Tiedemann, Princess Margaret Cancer Centre), […]
(§6) kind gift from Rodger Tiedemann, Princess Margaret Cancer Centre) and 50000 (CAL851, kind gift from Mathieu Lupien, Princess Margaret Cancer Centre) and were treated at increasing concentrations of compounds ranging from 0.01 μM to 30 μM and assessed for proliferation using CelltiterGlo (Promega) following manufacturer’s instructions, as readout on days 3 and 6 as indicated. All cell lines were mycoplasma negative, as determined by MycoAlert™ Mycoplasma Detection Kit(Lonza). […]

[2] = tested on: MDA-MB-436; test: CelltiterGlo viability cell assay; assay type: cell-based; conditions: MDA MB436, 3 day
Protocol: as §1, §2, §3, §4, §5, §6

For `COc1cc(OC)cc(-c2noc(N3CCN(C)C4(CCN(c5ccccc5)CC4)C3)n2)c1` [MRK-740N], the “viability Average” value ([1]; CAL851, 3 day, 0.01 uM) was 102.43, the “viability Replicate 1” value ([1]; CAL851, 3 day, 0.01 uM) was 104.57 and the “viability Replicate 2” value ([1]; CAL851, 3 day, 0.01 uM) was 100.53. For the same molecule, the “viability Replicate 3” value ([1]; CAL851, 3 day, 0.01 uM) was 102.20, the “viability Average” value ([1]; CAL851, 3 day, 0.03 uM) was 101.16 and the “viability Replicate 1” value ([1]; CAL851, 3 day, 0.03 uM) was 95.74. The “viability Replicate 2” value ([1]; CAL851, 3 day, 0.03 uM) was 100.94, the “viability Replicate 3” value ([1]; CAL851, 3 day, 0.03 uM) was 106.79 and the “viability Average” value ([1]; CAL851, 3 day, 0.1 uM) was 104.74. The “viability Replicate 1” value ([1]; CAL851, 3 day, 0.1 uM) was 106.32, the “viability Replicate 2” value ([1]; CAL851, 3 day, 0.1 uM) was 96.40 and the “viability Replicate 3” value ([1]; CAL851, 3 day, 0.1 uM) was 111.49. For the same molecule, the “viability Average” value ([1]; CAL851, 3 day, 0.3 uM) was 106.71, the “viability Replicate 1” value ([1]; CAL851, 3 day, 0.3 uM) was 111.33 and the “viability Replicate 2” value ([1]; CAL851, 3 day, 0.3 uM) was 101.82. For the same molecule, the “viability Replicate 3” value ([1]; CAL851, 3 day, 0.3 uM) was 106.99, the “viability Average” value ([1]; CAL851, 3 day, 1 uM) was 96.30 and the “viability Replicate 1” value ([1]; CAL851, 3 day, 1 uM) was 98.38. The “viability Replicate 2” value ([1]; CAL851, 3 day, 1 uM) was 96.24, the “viability Replicate 3” value ([1]; CAL851, 3 day, 1 uM) was 94.27 and the “viability Average” value ([1]; CAL851, 3 day, 3 uM) was 97.71. The “viability Replicate 1” value ([1]; CAL851, 3 day, 3 uM) was 91.85, the “viability Replicate 2” value ([1]; CAL851, 3 day, 3 uM) was 95.91 and the “viability Replicate 3” value ([1]; CAL851, 3 day, 3 uM) was 105.37. For the same molecule, the “viability Average” value ([1]; CAL851, 3 day, 9.5 uM) was 95.86, the “viability Replicate 1” value ([1]; CAL851, 3 day, 9.5 uM) was 89.90 and the “viability Replicate 2” value ([1]; CAL851, 3 day, 9.5 uM) was 94.75. For the same molecule, the “viability Replicate 3” value ([1]; CAL851, 3 day, 9.5 uM) was 102.94, the “viability Average” value ([1]; CAL851, 3 day, 30 uM) was 88.50 and the “viability Replicate 1” value ([1]; CAL851, 3 day, 30 uM) was 89.70. The “viability Replicate 2” value ([1]; CAL851, 3 day, 30 uM) was 92.97, the “viability Replicate 3” value ([1]; CAL851, 3 day, 30 uM) was 82.83 and the “viability Average” value ([1]; CAL851, 6 day, 0.01 uM) was 99.23. For the same molecule, the “viability Replicate 1” value ([1]; CAL851, 6 day, 0.01 uM) was 100.50, the “viability Replicate 2” value ([1]; CAL851, 6 day, 0.01 uM) was 95.18 and the “viability Replicate 3” value ([1]; CAL851, 6 day, 0.01 uM) was 102.02. The “viability Average” value ([1]; CAL851, 6 day, 0.03 uM) was 103.06, the “viability Replicate 1” value ([1]; CAL851, 6 day, 0.03 uM) was 101.15 and the “viability Replicate 2” value ([1]; CAL851, 6 day, 0.03 uM) was 96.95. For the same molecule, the “viability Replicate 3” value ([1]; CAL851, 6 day, 0.03 uM) was 111.07, the “viability Average” value ([1]; CAL851, 6 day, 0.1 uM) was 96.92 and the “viability Replicate 1” value ([1]; CAL851, 6 day, 0.1 uM) was 94.85. The “viability Replicate 2” value ([1]; CAL851, 6 day, 0.1 uM) was 96.64, the “viability Replicate 3” value ([1]; CAL851, 6 day, 0.1 uM) was 99.28 and the “viability Average” value ([1]; CAL851, 6 day, 0.3 uM) was 101.38. The “viability Replicate 1” value ([1]; CAL851, 6 day, 0.3 uM) was 95.47, the “viability Replicate 2” value ([1]; CAL851, 6 day, 0.3 uM) was 94.74 and the “viability Replicate 3” value ([1]; CAL851, 6 day, 0.3 uM) was 113.94. For the same molecule, the “viability Average” value ([1]; CAL851, 6 day, 1 uM) was 102.45, the “viability Replicate 1” value ([1]; CAL851, 6 day, 1 uM) was 100.66 and the “viability Replicate 2” value ([1]; CAL851, 6 day, 1 uM) was 100.26. For the same molecule, the “viability Replicate 3” value ([1]; CAL851, 6 day, 1 uM) was 106.42, the “viability Average” value ([1]; CAL851, 6 day, 3 uM) was 100.92 and the “viability Replicate 1” value ([1]; CAL851, 6 day, 3 uM) was 96.08. The “viability Replicate 2” value ([1]; CAL851, 6 day, 3 uM) was 95.38, the “viability Replicate 3” value ([1]; CAL851, 6 day, 3 uM) was 111.29 and the “viability Average” value ([1]; CAL851, 6 day, 9.5 uM) was 96.88. The “viability Replicate 1” value ([1]; CAL851, 6 day, 9.5 uM) was 95.12, the “viability Replicate 2” value ([1]; CAL851, 6 day, 9.5 uM) was 99.49 and the “viability Replicate 3” value ([1]; CAL851, 6 day, 9.5 uM) was 96.04. The “viability Average” value ([1]; CAL851, 6 day, 30 uM) was 87.30, the “viability Replicate 1” value ([1]; CAL851, 6 day, 30 uM) was 87.23 and the “viability Replicate 2” value ([1]; CAL851, 6 day, 30 uM) was 87.15. The “viability Replicate 3” value ([1]; CAL851, 6 day, 30 uM) was 87.51, the “viability Average” value ([2]; 0.01 uM) was 104.47 and the “viability Replicate 1” value ([2]; 0.01 uM) was 104.85. The “viability Replicate 2” value ([2]; 0.01 uM) was 108.92, the “viability Replicate 3” value ([2]; 0.01 uM) was 99.63 and the “viability Average” value ([2]; 0.03 uM) was 103.60. For the same molecule, the “viability Replicate 1” value ([2]; 0.03 uM) was 101.98, the “viability Replicate 2” value ([2]; 0.03 uM) was 106.92 and the “viability Replicate 3” value ([2]; 0.03 uM) was 101.91. The “viability Average” value ([2]; 0.1 uM) was 104.90, the “viability Replicate 1” value ([2]; 0.1 uM) was 108.03 and the “viability Replicate 2” value ([2]; 0.1 uM) was 99.50. For the same molecule, the “viability Replicate 3” value ([2]; 0.1 uM) was 107.16, the “viability Average” value ([2]; 0.3 uM) was 109.23 and the “viability Replicate 1” value ([2]; 0.3 uM) was 113.13. The “viability Replicate 2” value ([2]; 0.3 uM) was 103.55, the “viability Replicate 3” value ([2]; 0.3 uM) was 111.02 and the “viability Average” value ([2]; 1 uM) was 109.50. For the same molecule, the “viability Replicate 1” value ([2]; 1 uM) was 114.19, the “viability Replicate 2” value ([2]; 1 uM) was 107.46 and the “viability Replicate 3” value ([2]; 1 uM) was 106.85. The “viability Average” value ([2]; 3 uM) was 108.81, the “viability Replicate 1” value ([2]; 3 uM) was 105.69 and the “viability Replicate 2” value ([2]; 3 uM) was 108.01. The “viability Replicate 3” value ([2]; 3 uM) was 112.73, the “viability Average” value ([2]; 9.5 uM) was 105.69 and the “viability Replicate 1” value ([2]; 9.5 uM) was 111.14. The “viability Replicate 2” value ([2]; 9.5 uM) was 101.16, the “viability Replicate 3” value ([2]; 9.5 uM) was 104.77 and the “viability Average” value ([2]; 30 uM) was 65.33. For the same molecule, the “viability Replicate 1” value ([2]; 30 uM) was 67.81, the “viability Replicate 2” value ([2]; 30 uM) was 62.64 and the “viability Replicate 3” value ([2]; 30 uM) was 65.53.
